Reference: patent publication US5691311A (Biogen, Inc., priority 1995, dated 1997)
Read-outs that look alike come from different tables or passages of the source.

What was measured:
thrombin = thrombin (Homo sapiens, UniProt P00734); conditions: cited from earlier work
[1] = tested on: pooled, normal human plasma; test: Activated partial thromboplastin time (APTT) assay in plasma; format: biochemical; conditions: 10 to 32,300 ng/ml
Text: Hirulog-8 using pooled, normal human plasma (George King Biomedical, Overland Park, Kans.) and a Coag-A-Mate XC instrument (General Diagnostics, Organon Technica, Oklahoma City, Okla.). Activity was monitored using the activated partial thromboplastin time (APTT) assay with CaCl2 and phospholipid solutions obtained from the manufacturer.

hirudin
Kd (thrombin; 1:1 stoichiometric complex, read-out: Kd of hirudin binding to thrombin): 0.02 nM | Kd (thrombin; site separate from the catalytic site (anion-binding exosite), read-out: Kd of hirudin for the low affinity site on thrombin): 10 nM | maximal increase of APTT of plasma [1]: too high to be measured
